{
  "source": "patent US9675768B2",
  "about": "“Aerosolization device” (Nektar Therapeutics, priority 2008, dated 2017)",
  "assay": "In-vitro particle size distribution of the aerosol at the mouthpiece",
  "format": "physicochemical",
  "procedure": "Percentage of inhaled mass is a measured quantity, and represents the amount of aerosolized medicament which would be inhaled by a patient. Chamber percent is measured and represents the amount remaining in the chamber 22. MMAD is the mass median aerodynamic size of the aerosolized droplets 79, and FPF<5 μm denotes the fine particle fraction under 5 microns, which represents a particle size distribution well suited for delivery to the deep lung. Inhaled mass may be measured by a variety of means, such as by scintigraphy, or by washing the device or component thereof, eluting the drug and directly measuring, e.g. by titration. Inhaled mass measurements are described, for example, in European Standard EN13544-1, which is incorporated by reference herein.\nIn this Example an in-vitro delivered dose and particle size distribution (PSD) of the device of FIG. 1 was measured, using a dose of 400 mg of amikacin (125 mg/ml; 3.2 ml). Thus, the in-vitro percentage inhaled mass of amikacin sulfate at the mouthpiece under simulated patient breathing was quantified. Under the following conditions: Tidal Volume (TV) was 500 mL; Respiratory rate (RR) was 15 and an inspiratory to expiratory ratio was 2:3. Three devices were tested. Also, an in-vitro particle size distribution (PSD) at the was determined. Mass balance was determined at the end of the first inhaled mass test run. Breathing parameters of the ventilator were verified pre- and post-inhaled mass test runs. The experimental set up is depicted in FIG. 9.",
  "data": [
    {"molecule": "NCC[C@H](O)C(=O)N[C@@H]1C[C@H](N)[C@@H](O[C@H]2O[C@H](CN)[C@@H](O)[C@H](O)[C@H]2O)[C@H](O)[C@H]1O[C@H]1O[C@H](CO)[C@@H](O)[C@H](N)[C@H]1O.O=S(=O)(O)O.O=S(=O)(O)O", "note": "[amikacin, amikacin sulfate]", "values": [
      {"measurement": "Fine Particle fraction of less than 5 microns (FPF<5.0 μm)", "result": "about 66%"},
      {"measurement": "Fine Particle Dose of less than 5 microns (FPD<5.0 μm)", "setting": "400 mg dose", "result": "about 240 mg"},
      {"measurement": "Mass Median Aerodynamic Diameter (MMAD) of the aerosolized particles", "setting": "three hand-held devices", "result": "3.7-3.8 μm"}
    ]}
  ]
}
